# Laboratory results: patent US20090215669A1, “COMPOSITIONS AND METHODS FOR TREATMENT OF DIABETES” (DIA-B TECH LIMITED, priority 2005, published 2009)
# Several values for one entry are separate records, joined by “and”; a condition that tells them apart may be missing. Equal values may be shown once. Ends that are not written are not given here. Peptide text beside a SMILES is read from it.
# How the values were obtained:
# [1] = Oral administration of 14C-ISF402: radioactivity in blood, serum and urine; assay type: in vivo, rat
# Procedure: (§1) ^14C-ISF402 (22.7 μCi/mg) was dissolved in water and diluted with unlabelled ISF402 to a concentration of 30 mg/mL for oral and 4.5 mg/mL for intravenous (IV) administration. The day before the experiment 16-18 week female Zucker fa/fa rats (300-400 g) rats were fasted overnight with free access to water before oral administration of ^14C-ISF402 by gavage at 30 mg/kg, 260-263.7 kBq/kg (5.0-5.1 μCi/kg) or IV with 4.5 mg/kg, 103.0-107.3 kBg/kg (1.98-2.06 μCi/kg). After administration of ^14C-ISF402 rats were placed into metabolic cages with free access to food and water.
# (§2) Blood samples were collected from the tail vein over the 7 hour time course. Urine was collected at 4 and 12 hours after administration. Whole blood samples (100 μL) were collected and placed into dry ice then stored at −80° C. 50 μL of serum from whole blood was collected into T-MG clotting capiject tubes (Terumo, Elkton, Md.). Sera were separated by centrifuging blood for 90 seconds at 3000×g at room temperature. 100 μL and 50 μL of whole blood and serum, respectively was used for the measurement of radioactivity. The whole blood and serum samples were solubilized with 2 volumes of sample, 2 volumes of 1.4M NaOH and 1 volume of 30 percent hydrogen peroxide. The final volume was made to 1 mL by the addition of distilled water. 4 mL of HiSafe3 Optiphase (PerkinElmer, Boston, Mass.) was added and radioactivity determined in a Wallac Scintillation counter.
# (§3) Urine was frozen at −20° C. until analysed for radioactivity. After measuring the total volume of urine, 100 μL of urine and 100 μL ethanol was added to 4 mL scintillant. Samples were left overnight after the addition of scintillant then counted for radioactivity using a Wallac 1409 liquid scintillant counter (PerkinElmer, Boston, Mass.). Radioactivity in all samples was counted several times over the course of 4 weeks until readings were consistent. Radioactivity was expressed as μg equivalent (eq.)/mL. This was calculated from the dpm per mL of sample divided by the specific radioactivity of the peptide administered. The integrity of the radiolabelled peptide in serum and urine samples was determined by reverse phase HPLC as described above.
# [2] = Intravenous administration of 14C-ISF402: radioactivity in blood and serum; assay type: in vivo, rat
# Procedure: as §1, §2, §3
# Zinc-insulin hexamers = molecular target: T1, Zinc-insulin hexamers (Bos taurus, UniProt P01317); experiment: Circular dichroism of zinc-insulin hexamers (dispersal); assay type: biochemical, bovine; settings: Zn-insulin 1 mg/mL; for CD signal at 275 nm of Zn-insulin upon addition: ISF401 1 μL of 100 mM, EDTA 4 mM
# T1 construct: Zinc-insulin hexamers were prepared by dissolving bovine insulin containing 0.6% zinc
# T1 sequence (P01317 25-54 limits assumed): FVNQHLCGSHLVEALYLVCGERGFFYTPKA
# T1 sequence (P01317 85-105 limits assumed): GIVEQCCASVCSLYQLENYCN
# Procedure: Zinc-insulin hexamers were prepared by dissolving bovine insulin containing 0.6% zinc in […] then raising the pH to 7.2-7.4 by addition of NaOH. HEPES buffer was added to give a final solution of 1 mg/mL insulin in 25 mM HEPES buffer (pH 7.2). The CD spectrum of insulin or ISF401 was measured from […] at 20° C. on a Jasco J-810 spectropolarimeter equipped with a PFD 423S/L Peltier type temperature controller. 200 μL of sample was placed in a quartz cuvette, with path length of 1 mm, in the spectropolarimeter and the CD spectrum was recorded. Each spectrum represents an average of 3-5 scans performed at 100 nm/min with a band width of 1 nm. The effect of ethylenediamine tetraacetic acid (EDTA) and ISF401 were measured by adding an aliquot of EDTA (4 mM) or an aliquot of ISF401 (100 mM) and measuring the CD spectrum.
# To test dispersal of insulin hexamers by ISF401, circular dichroism (CD) was used.
# The CD signal at 275 nm was used to measure the association state of insulin in the presence of ISF401 (1 μL of 100 mM), EDTA ([…] of 4 mM) and deionised water (1 μL).
# hexameric insulin = molecular target: T2, hexameric insulin (Homo sapiens, UniProt P01308); experiment: Size exclusion chromatography of hexameric insulin with test peptide; assay type: biochemical
# T2 construct: correspond to dimeric insulin (11.8 kDa) and monomeric (5.8 kDa) insulin respectively; purchased Sigma 19278
# T2 sequence (P01308 25-54 limits assumed): as the sequence (P01317 25-54 limits assumed) above, with A30T counted along it
# T2 sequence (P01308 90-110 limits assumed): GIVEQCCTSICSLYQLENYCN
# Procedure: Size exclusion chromatography was used to study the effect of GHTD-amide (ISF401) on hexameric insulin. Recombinant Human Insulin solution (Sigma 19278) was diluted to 2 mg/mL with 10 mM Tris pH 7.4 and dialysed against 10 mM Tris pH 7.4 (to remove HEPES which absorbs strongly at 214 nm and coelutes with GHTD-amide). Insulin stock solution at 1.5 mg/mL was then prepared by addition of phenol to 4 mM, NaCl to 140 mM and ZnCl2 to 100 μM. Prior to size exclusion chromatography stock insulin was mixed either with water or test peptide to give a final concentration 1 mg/mL each of insulin and test peptide when applicable, and 10 mM Tris pH 7.4, 140 mM NaCl and […] ZnCl2 then incubated at room temperature for 1 hour. Samples of insulin or mixtures (800 μL) were then subjected to size exclusion chromatography using a 1×30 cm Superdex 75 HR 10/30 column at a flow rate of 0.1 mL min^−1 with an eluent comprising Tris-buffered isotonic saline (140 mM NaCl, 10 mM Tris/HCl pH 7.4, 60 μM ZnCl2) at a flow rate of 0.1 mL min^−1, UV detection at 214 nm and 276 nm, and collection of 0.5 mL fractions for protein determination. Protein size standards Aprotinin (6 kDa) and Carbonic Anhydrase (29 kDa) run under the same conditions eluted at 18.85 mL and 14.75 mL respectively. The gel matrix, which has a fractionation range of 3,000 to 70,000 Da, and sample volume loaded were chosen to ensure that the two peptides remained in contact within the gel matrix thereby allowing interaction to occur between the two during the separation process. The concentration of insulin was maintained at 1 mg/mL at pH 7.4 in the presence of 2 Zn^2+/hexamer since it has been shown that at this concentration insulin exists predominantly as Zn^2+-dependent hexamers.
# female Zucker fa/fa rats = experiment: Intravenous injection of female Zucker fa/fa rats: blood glucose, serum insulin, C-peptide, triglyceride; assay type: in vivo, rat; settings: iv, Lispro insulin 1 U/kg alone, 60 minutes after injection
# [3] = IV 4.5 mg/kg, 2 minutes after injection
# [4] = IV 4.5 mg/kg, 90 minutes after injection, assuming radioactivity is intact ISF402
# [5] = after incubation with test peptide, 276 nm
compound,measurement,setting,value
CC(C)[C@H](N)C(=O)N[C@@H](Cc1c[nH]cn1)C(=O)N[C@H](C(=O)N[C@@H](CC(=O)O)C(N)=O)[C@@H](C)O [14C-ISF402] (H-VHTD-NH2),concentration in whole blood and sera,[1]; 30 minutes after oral dosing,Approximately 4 μg/mL
same,time to appearance in the circulation after dosing,[1]; oral 30 mg/kg,≤ 30 min
same,concentration in whole blood (radioactivity),"[1]; oral 30 mg/kg, 7 hours",44200 ± 2500 ng/mL
same,concentration in sera (radioactivity),"[1]; oral 30 mg/kg, after 90 minutes",22100 ± 4900 ng/mL
same,concentration in whole blood (radioactivity),"[1]; oral 30 mg/kg, after 90 minutes, assuming labelled ISF402 still intact",23700 ± 2100 ng/mL
same,level at 2 h,"[1]; rat, in vivo, 30 mg/kg, 120 minutes after oral dosing, read-out: ISF402 levels in the circulation",> 20000 ng/mL
same,composition of radioactivity in urine,[1]; urine collected over 4 hours after dosing,mixture of degraded peptide and intact ISF402
same,share of radioactivity in urine associated with intact ISF402,[1]; urine collected over 12 hours after administration,47% and 46%
same,"radioactivity retrieved in urine, of the total radioactive ISF402 administered","[1]; urine, 12 hours",0.97±0.13%
same,share of radioactivity in urine associated with free Valine,"[1]; urine, 12 hours after administration",32%
same,concentration in serum (radioactivity),[2]; [3],24800 ± 300 ng/mL
same,concentration in whole blood (radioactivity),[2]; [3],12000 ± 1000 ng/mL
same,concentration in serum (radioactivity),[2]; [4],8000 ± 2000 ng/mL
same,concentration in whole blood (radioactivity),[2]; [4],3400 ± 1300 ng/mL
same,level at 7 h,"[2]; rat, in vivo, IV 4.5 mg/kg, 7 hours, read-out: concentration detected at the conclusion of the time course",2200 ± 1500 ng/mL
same,integrity of peptide in serum by reverse phase HPLC,[2]; serum collected 2 minutes after IV administration,intact
"O=C(O)CN(CCN(CC(=O)O)CC(=O)O)CC(=O)O [EDTA, ethylenediamine tetraacetic acid, reference compound]",CD signal at 275 nm of Zn-insulin upon addition,Zinc-insulin hexamers,increased
Gly-His-Thr-Asp-NH2 (GHTD-NH2) [ISF401],dissociation of hexameric insulin after incubation with test peptide,"hexameric insulin; 1 mg/mL each of insulin and peptide, 1 hour room temperature, monitoring at 276 nm",cause the dissociation (disaggregation) of hexamers to dimeric and monomeric forms
same,elution volume of emerging peak corresponding to dimeric insulin (11.8 kDa),hexameric insulin; [5],15.085 mL
same,elution volume of emerging peak corresponding to monomeric (5.8 kDa) insulin,hexameric insulin; [5],19.045 mL
same,molar excess to insulin at maximum dispersion of insulin hexamers,Zinc-insulin hexamers,10 fold
same,CD signal at 275 nm of Zn-insulin upon addition,Zinc-insulin hexamers,increased
"Lispro insulin: altered form of human insulin that does not form stable hexamers; Lispro (Humalog), Eli Lilly [reference compound]",reduction in blood glucose,female Zucker fa/fa rats,0.90 ± 0.77 mmol/L
